This is an account of results in US20100210555A1, “USE OF A LAMININ PEPTIDE AS A THERAPEUTIC AGENT” (priority 2007, published 2010).

Where no end group is shown, it is not given here.

One assay deals with HCMV strain AD169. Briefly: HCMV plaque formation assay in MRC-5 cells. Conditions: for inhibition of HCMV plaque formation as compared to the virus control: 10 micrograms per ml, 7-10 days.
In assay [1] the test system is hepatitis B virus (HBV) ayw strain. Briefly: HBV experimental assay system (HepG2-2.2.15, TaqMan PCR of secreted HBV DNA). The assay is classed as cell-based. To be noted: 10 micrograms per ml; HepG2-2.2.15 cells, six days. The source says:
HepG2-2.2.15 is a stable cell line containing the hepatitis B virus (HBV) ayw strain genome (ATCC Cat. No. CRL-11997). Antiviral compounds blocking any late step of viral replication such as transcription, translation, pregenome encapsidation, reverse transcription, particle assembly and release can be identified and characterized using this cell line. In this assay, an active compound will reduce the production of secreted HBV from cells, measured by utilizing real time quantitative PCR (TaqMan) assay to directly and accurately measure HBV DNA copies.
HepG2-2.2.15 cells were plated in 96-well microtiter plates. After 16-24 hours the confluent monolayer of HepG2-2.2.15 cells was washed and the medium was replaced with complete medium containing test peptides—10 micrograms per ml—in duplicate. […] Six days following the initial administration of the peptides, the cell culture supernatants was collected, treated with pronase and DNAse and then used in a real-time quantitative TaqMan PCR assay. The PCR-amplified HBV DNA was detected in real-time by monitoring increases in fluorescence signals that result from the exonucleolytic degradation of a quenched fluorescence probe molecule that hybridizes to the mplified HBV DNA. […] Antiviral activity was calculated from the reduction in HBV DNA levels (% virus control). […]
(In qPCR the cycle at which signal appears reflects the starting amount.)

Another assay has as its system HUVEC. The assay is described as follows: Endothelial tube formation assay. It counts as cell-based, human. Conditions: 10 micrograms per ml, 20 hours, combination peptide 1:peptide 2 0.95 mole: 1.05 mole. The source says:
Positive control was vehicle only.

Assay [2] has as its system Primary Human endothelial cells (HUVEC). The assay is described as follows: Endothelial cell migration assay. To be noted: 10 micrograms per ml, 22 hours, combination peptide 1:peptide 2 0.95 mole: 1.05 mole. The assay is classed as cell-based.
A further assay has as its system spleen cells. The assay is described as follows: Th1/Th2 cytokine profiling assay. It counts as cell-based, Balb/c mice. To be noted: 10 micrograms per ml; Ovalbumin restimulation, 72 hours.

In the case of `Nc1nc(O)c2ncn(COC(CO)CO)c2n1` [Ganciclovir, reference compound], in the assay with HCMV strain AD169 (positive control, HCMV AD169), the “antiviral activity of positive control compound (HCMV)” value was “expected levels of antiviral activity”.
As for “Cys-Ser-Arg-Ala-Arg-Lys-Gln-Ala-Ala-Ser-Ile-Lys-Val-Ala-Val-Ser-Ala-Asp-Arg-OH (CSRARKQAASIKVAVSADR-OH) [peptide 1]”, in assay [1], the “inhibition of HBV replication as compared to the virus control infection” value is recorded as 22.1%. Further, the “inhibition of the tube formation of endothelial cells” value with HUVEC came out at 30%. The “inhibition of the migration of human endothelial cells” value in assay [2] is reported as 32%. For the same compound, in the assay on spleen cells, the “IFNγ spleen cells; TH1 response (% of control)” value is recorded as 88.8 % of control, the “IL-2 spleen cells (% of control)” value is 66.8 % of control, the “IL-4 spleen cells; TH2 response (% of control)” value is reported as 148.8 % of control and the “IL-5 spleen cells; TH2 response (% of control)” value was 64.5 % of control. In addition, the “TNF-a spleen cells; TH1 response (% of control)” value in the assay with spleen cells is listed as 101.0 % of control. Besides, the “inhibition of HCMV plaque formation as compared to the virus control” value in the assay on HCMV strain AD169 was “did not inhibit”.
Take “Pro-His-Pro-Phe-His-Leu-Phe-Val-Tyr-OH (PHPFHLFVY-OH) [peptide 2]”: in assay [1], the “inhibition of HBV replication as compared to the virus control infection” value is listed as “no effect”. Further, the “inhibition of the tube formation of endothelial cells” value with HUVEC is reported as 27%. In assay [2], the “inhibition of the migration of human endothelial cells” value was determined as 33%. In the assay with spleen cells, the “IFNγ spleen cells; TH1 response (% of control)” value is 76.6 % of control, the “IL-2 spleen cells (% of control)” value was 70.7 % of control, the “IL-4 spleen cells; TH2 response (% of control)” value is 113.5 % of control and the “IL-5 spleen cells; TH2 response (% of control)” value was 57.6 % of control. Also, in the assay with spleen cells, the “TNF-a spleen cells; TH1 response (% of control)” value is 111.8 % of control. In addition, the “inhibition of HCMV plaque formation as compared to the virus control” value in the assay with HCMV strain AD169 is “did not inhibit”.
